From ChEMBL document CHEMBL1201861, “Genomics of Drug Sensitity in Cancer screening data, Wellcome Trust Sanger Institute”

How the values were obtained:
Assay in all cases: cells
[1] = system: D-542MG; format: functional, cell-based, Homo sapiens; settings: Homo sapiens, D-542MG
Description: SANGER: Inhibition of human D-542MG cell growth in a cell viability assay.

[2] = system: NCI-H1963; format: functional, cell-based, Homo sapiens; settings: Homo sapiens, NCI-H1963;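 further: cell growth inhibition of the human line, determined with a cell viability assay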
Description: SANGER: Inhibition of human NCI-H1963 cell growth in a cell viability assay.

[3] = system: RL95-2; format: functional, cell-based; settings: Homo sapiens;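 further: RL95-2 growth inhibition determined through a cell viability readout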
Description: SANGER: Inhibition of human RL95-2 cell growth in a cell viability assay.

[4] = system: LC4-1; format: functional, cell-based, Homo sapiens; settings: Homo sapiens, LC4-1;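 further: growth inhibition of LC4-1 cells, read out with a cell viability assay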
Description: SANGER: Inhibition of human LC4-1 cell growth in a cell viability assay.

[5] = system: K052; format: functional, cell-based, Homo sapiens; settings: Homo sapiens, K052;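 further: Read-out from a cell viability assay, IC50 reflecting suppression of K052 cell growth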
Description: SANGER: Inhibition of human K052 cell growth in a cell viability assay.

[6] = system: CPC-N; format: functional, cell-based, Homo sapiens; settings: Homo sapiens, CPC-N;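 further: growth inhibition of CPC-N cells, with a cell viability assay as the readout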
Description: SANGER: Inhibition of human CPC-N cell growth in a cell viability assay.

[7] = system: IMR-5; format: functional, cell-based, Homo sapiens; settings: Homo sapiens, IMR-5;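 further: growth inhibition of human IMR-5 cells, read out with a cell viability assay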
Description: SANGER: Inhibition of human IMR-5 cell growth in a cell viability assay.

[8] = system: D-336MG; format: functional, cell-based, Homo sapiens; settings: Homo sapiens, D-336MG
Description: SANGER: Inhibition of human D-336MG cell growth in a cell viability assay.

[9] = system: Raji; format: functional, cell-based, Homo sapiens; settings: Homo sapiens, Raji;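 further: cell viability assay measuring inhibition of Raji cell growth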
Description: SANGER: Inhibition of human Raji cell growth in a cell viability assay.

[10] = system: SR; format: functional, cell-based, Homo sapiens; settings: Homo sapiens, SR
Description: SANGER: Inhibition of human SR cell growth in a cell viability assay.

[11] = system: UACC-812; format: functional, cell-based, Homo sapiens; settings: Homo sapiens, UACC-812
Description: SANGER: Inhibition of human UACC-812 cell growth in a cell viability assay.

[12] = system: MKN-7; format: functional, cell-based, Homo sapiens; settings: Homo sapiens, MKN-7;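 further: growth inhibition of MKN-7 cells, read out with a cell viability assay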
Description: SANGER: Inhibition of human MKN7 cell growth in a cell viability assay.

[13] = system: KYSE-410; format: functional, cell-based, Homo sapiens; settings: Homo sapiens, KYSE-410;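 further: growth inhibition of KYSE-410 cells, measured through a cell viability readout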
Description: SANGER: Inhibition of human KYSE-410 cell growth in a cell viability assay.

[14] = system: SAS; format: functional, cell-based, Homo sapiens; settings: Homo sapiens, SAS;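 further: growth inhibition of SAS cells, read out with a cell viability assay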
Description: SANGER: Inhibition of human SAS cell growth in a cell viability assay.

[15] = system: RMG-I; format: functional, cell-based, Homo sapiens; settings: Homo sapiens, RMG-I;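 further: growth inhibition of human RMG-I cells, read out with a cell viability assay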
Description: SANGER: Inhibition of human RMG-I cell growth in a cell viability assay.

[16] = system: COR-L105; format: functional, cell-based, Homo sapiens; settings: Homo sapiens, COR-L105;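 further: cell growth inhibition determined with a viability assay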
Description: SANGER: Inhibition of human COR-L105 cell growth in a cell viability assay.

[17] = system: BXPC-3; format: functional, cell-based, Homo sapiens; settings: Homo sapiens, BXPC-3;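 further: growth inhibition of human BxPC-3 cells, read out by a cell viability assay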
Description: SANGER: Inhibition of human BxPC-3 cell growth in a cell viability assay.

[18] = system: COLO-741; format: functional, cell-based, Homo sapiens; settings: Homo sapiens, COLO-741
Description: SANGER: Inhibition of human COLO-741 cell growth in a cell viability assay.

[19] = system: C32; format: functional, cell-based, Homo sapiens; settings: Homo sapiens, C32;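 further: cell viability assay, with IC50 reflecting inhibition of C32 cell growth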
Description: SANGER: Inhibition of human C32 cell growth in a cell viability assay.

[20] = system: NCI-H1563; format: functional, cell-based, Homo sapiens; settings: Homo sapiens, NCI-H1563;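 further: growth inhibition of human NCI-H1563 cells, read out with a cell viability assay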
Description: SANGER: Inhibition of human NCI-H1563 cell growth in a cell viability assay.

[21] = system: RERF-LC-MS; format: functional, cell-based, Homo sapiens; settings: Homo sapiens, RERF-LC-MS;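 further: growth inhibition of human RERF-LC-MS cells, read out by a cell viability assay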
Description: SANGER: Inhibition of human RERF-LC-MS cell growth in a cell viability assay.

[22] = system: OAW-42; format: functional, cell-based, Homo sapiens; settings: Homo sapiens, OAW-42;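 further: growth inhibition of OAW-42 cells, read out with a cell viability assay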
Description: SANGER: Inhibition of human OAW-42 cell growth in a cell viability assay.

[23] = system: U-118-MG; format: functional, cell-based, Homo sapiens; settings: Homo sapiens, U-118-MG
Description: SANGER: Inhibition of human U-118-MG cell growth in a cell viability assay.

[24] = system: CAL-85-1; format: functional, cell-based, Homo sapiens; settings: Homo sapiens, CAL-85-1;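 further: growth inhibition of human CAL-85-1 cells, read out with a cell viability assay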
Description: SANGER: Inhibition of human CAL-85-1 cell growth in a cell viability assay.

[25] = system: KYSE-150 cell line; format: functional, cell-based, Homo sapiens; settings: Homo sapiens, KYSE-150;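 further: growth inhibition of human KYSE-150 cells, read out with a cell viability assay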
Description: SANGER: Inhibition of human KYSE-150 cell growth in a cell viability assay.

[26] = system: HCC1419; format: functional, cell-based, Homo sapiens; settings: Homo sapiens, HCC1419;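 further: growth inhibition of human HCC1419 cells, read out as cell viability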
Description: SANGER: Inhibition of human HCC1419 cell growth in a cell viability assay.

[27] = system: HMV-2 cell line; format: functional, cell-based, Homo sapiens; settings: Homo sapiens, HMV-2;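 further: growth inhibition of HMV-II cells, read out with a cell viability assay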
Description: SANGER: Inhibition of human HMV-II cell growth in a cell viability assay.

[28] = system: 769-P; format: functional, cell-based, Homo sapiens; settings: Homo sapiens, 769-P
Description: SANGER: Inhibition of human 769-P cell growth in a cell viability assay.

[29] = system: EFM-19; format: functional, cell-based, Homo sapiens; settings: Homo sapiens, EFM-19;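 further: growth inhibition of human EFM-19 cells, measured in a cell viability assay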
Description: SANGER: Inhibition of human EFM-19 cell growth in a cell viability assay.

[30] = system: GP5d; format: functional, cell-based, Homo sapiens; settings: Homo sapiens, GP5d;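 further: growth inhibition of human GP5d cells, read out with a cell viability assay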
Description: SANGER: Inhibition of human GP5d cell growth in a cell viability assay.

[31] = system: NCI-H1993; format: functional, cell-based, Homo sapiens; settings: Homo sapiens, NCI-H1993;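 further: growth inhibition of the cancer cell line, assessed with a cell viability assay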
Description: SANGER: Inhibition of human NCI-H1993 cell growth in a cell viability assay.

[32] = system: DK-MG; format: functional, cell-based, Homo sapiens; settings: Homo sapiens, DK-MG;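 further: growth inhibition of DK-MG cells, read out with a cell viability assay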
Description: SANGER: Inhibition of human DK-MG cell growth in a cell viability assay.

[33] = system: SK-MEL3; format: functional, cell-based, Homo sapiens, SK-MEL-3; settings: Homo sapiens, SK-MEL3;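 further: growth inhibition of human SK-MEL-3 cells, read out with a cell viability assay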
Description: SANGER: Inhibition of human SK-MEL-3 cell growth in a cell viability assay.

[34] = system: MKN-1; format: functional, cell-based, Homo sapiens; settings: Homo sapiens, MKN-1;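 further: growth inhibition of human MKN1 cells, read out by a cell viability measurement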
Description: SANGER: Inhibition of human MKN1 cell growth in a cell viability assay.

[35] = system: MDA-MB-231; format: functional, cell-based, Homo sapiens; settings: Homo sapiens, MDA-MB-231
Description: SANGER: Inhibition of human MDA-MB-231 cell growth in a cell viability assay.

[36] = system: PANC-08-13; format: functional, cell-based, Homo sapiens; settings: Homo sapiens, PANC-08-13;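 further: cell growth inhibition, measured with a cell viability assay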
Description: SANGER: Inhibition of human PANC-08-13 cell growth in a cell viability assay.

[37] = system: NCI-H1793; format: functional, cell-based, Homo sapiens; settings: Homo sapiens, NCI-H1793;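 further: cell growth inhibition, read out by a cell viability assay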
Description: SANGER: Inhibition of human NCI-H1793 cell growth in a cell viability assay.

[38] = system: Panc1005; format: functional, cell-based, Homo sapiens; settings: Homo sapiens, Panc1005;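 further: growth inhibition of human PANC-10-05 cells, measured by a cell viability assay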
Description: SANGER: Inhibition of human PANC-10-05 cell growth in a cell viability assay.

[39] = system: SNU-449; format: functional, cell-based, Homo sapiens; settings: Homo sapiens, SNU-449
Description: SANGER: Inhibition of human SNU-449 cell growth in a cell viability assay.

[40] = system: M059J; format: functional, cell-based, Homo sapiens; settings: Homo sapiens, M059J;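 further: growth inhibition of M059J cells, read out with a cell viability assay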
Description: SANGER: Inhibition of human M059J cell growth in a cell viability assay.

[41] = system: GMS-10; format: functional, cell-based, Homo sapiens; settings: Homo sapiens, GMS-10;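 further: growth inhibition of GMS-10 cells, read out as cell viability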
Description: SANGER: Inhibition of human GMS-10 cell growth in a cell viability assay.

[42] = system: KOSC-2; format: functional, cell-based, Homo sapiens; settings: Homo sapiens, KOSC-2;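 further: growth inhibition of KOSC-2 cells, read out by a cell viability assay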
Description: SANGER: Inhibition of human KOSC-2 cell growth in a cell viability assay.

[43] = system: HOS; format: functional, cell-based, Homo sapiens; settings: Homo sapiens, HOS;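 further: growth inhibition of human HOS cells, read out with a cell viability assay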
Description: SANGER: Inhibition of human HOS cell growth in a cell viability assay.

[44] = system: SK-MEL-28; format: functional, cell-based, Homo sapiens; settings: Homo sapiens, SK-MEL-28;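 further: growth inhibition of human SK-MEL-28 cells, read out with a cell viability assay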
Description: SANGER: Inhibition of human SK-MEL-28 cell growth in a cell viability assay.

[45] = system: HSC-4; format: functional, cell-based, Homo sapiens; settings: Homo sapiens, HSC-4;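 further: growth inhibition of human HSC-4 cells, read out with a cell viability assay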
Description: SANGER: Inhibition of human HSC-4 cell growth in a cell viability assay.

COc1cc(N2CCN(C)CC2)ccc1Nc1ncc2c(n1)N(C)c1ccccc1C(=O)N2C
IC50 [1]: 2000 nM | IC50 [2]: > 8000 nM | IC50 [3]: > 8000 nM | IC50 [4]: 4020 nM | IC50 [5]: 6240 nM | IC50 [6]: > 8000 nM | IC50 [7]: 6350 nM | IC50 [8]: 769 nM | IC50 [9]: > 8000 nM | IC50 [10]: 6480 nM | IC50 [11]: > 8000 nM

COc1cc(-c2nn([C@H]3CC[C@H](N4CCN(C(C)=O)CC4)CC3)c3ncnc(N)c23)ccc1NC(=O)c1cc2ccccc2n1C
IC50 [2]: > 5120 nM | IC50 [3]: 379 nM | IC50 [4]: > 5120 nM | IC50 [5]: > 5120 nM | IC50 [6]: > 5120 nM | IC50 [7]: > 5120 nM | IC50 [8]: 212 nM | IC50 [9]: > 5120 nM | IC50 [10]: > 5120 nM

OCCCNc1cc(-c2ccnc(Nc3cccc(Cl)c3)n2)ccn1
IC50 [2]: 93.1 nM | IC50 [3]: 177 nM | IC50 [4]: 71.3 nM | IC50 [5]: > 256 nM | IC50 [6]: > 256 nM | IC50 [7]: 124 nM | IC50 [8]: 109 nM | IC50 [9]: 42.1 nM | IC50 [10]: 25.5 nM

N#Cc1c(O)c2c(-c3ccc(-c4ccccc4O)cc3)csc2[nH]c1=O
IC50 [12]: > 1020 nM | IC50 [1]: > 1020 nM | IC50 [13]: > 1020 nM | IC50 [14]: > 1020 nM | IC50 [15]: > 1020 nM | IC50 [16]: > 1020 nM | IC50 [17]: > 1020 nM | IC50 [2]: > 1020 nM | IC50 [18]: > 1020 nM | IC50 [3]: > 1020 nM | IC50 [4]: 563 nM | IC50 [19]: > 1020 nM | IC50 [20]: > 1020 nM | IC50 [21]: > 1020 nM | IC50 [5]: 791 nM | IC50 [22]: > 1020 nM | IC50 [23]: > 1020 nM | IC50 [6]: > 1020 nM | IC50 [24]: > 1020 nM | IC50 [7]: > 1020 nM | IC50 [25]: > 1020 nM | IC50 [26]: > 1020 nM | IC50 [27]: > 1020 nM | IC50 [28]: > 1020 nM | IC50 [29]: > 1020 nM | IC50 [30]: > 1020 nM | IC50 [31]: > 1020 nM | IC50 [32]: > 1020 nM | IC50 [8]: > 1020 nM | IC50 [33]: > 1020 nM | IC50 [34]: > 1020 nM | IC50 [35]: > 1020 nM | IC50 [36]: > 1020 nM | IC50 [37]: > 1020 nM | IC50 [9]: 670 nM | IC50 [38]: > 1020 nM | IC50 [39]: > 1020 nM | IC50 [10]: 114 nM | IC50 [11]: > 1020 nM | IC50 [40]: > 1020 nM | IC50 [41]: > 1020 nM | IC50 [42]: > 1020 nM | IC50 [43]: > 1020 nM | IC50 [44]: > 1020 nM | IC50 [45]: > 1020 nM

Cc1ccc(-c2c(C(=O)CCl)n(CCCO)c3ncnc(N)c23)cc1
IC50 [2]: > 4000 nM | IC50 [3]: > 4000 nM | IC50 [4]: > 4000 nM | IC50 [5]: > 4000 nM | IC50 [6]: > 4000 nM | IC50 [7]: > 4000 nM | IC50 [8]: > 4000 nM | IC50 [9]: > 4000 nM | IC50 [10]: > 4000 nM

C#Cc1cccc(Nc2ncnc3cc(OCCOC)c(OCCOC)cc23)c1 [ERLOTINIB]
IC50 [1]: > 2000 nM | IC50 [2]: > 2000 nM | IC50 [3]: > 2000 nM | IC50 [4]: > 2000 nM | IC50 [6]: > 2000 nM | IC50 [7]: > 2000 nM | IC50 [8]: > 2000 nM | IC50 [9]: > 2000 nM | IC50 [10]: > 2000 nM | IC50 [11]: > 2000 nM
